Tests used:
[1] = molecular target: T1, perforin delivered by KHYG1 NK cells (Homo sapiens, UniProt P14222); assay: KHYG1 inhibitory assay: lysis of 51Cr-labelled K562 target cells by KHYG1 NK cells; format: cell-based; settings: 51Cr-labelled K562 target cells co-incubated with KHYG1 human NK cells, vs untreated control; for inhibition at 10 µM: n = 4; for KHYG1 Inhibition (% at 10 μM): n = 4, 10 µM
T1 construct: The use of whole NK cells to deliver perforin provides a more realistic model of conditions in vivo; endogenous in cells; host or cells: KHYG1 human NK cells (effector); K562 leukemia target cells
T1 sequence (P14222 22-555): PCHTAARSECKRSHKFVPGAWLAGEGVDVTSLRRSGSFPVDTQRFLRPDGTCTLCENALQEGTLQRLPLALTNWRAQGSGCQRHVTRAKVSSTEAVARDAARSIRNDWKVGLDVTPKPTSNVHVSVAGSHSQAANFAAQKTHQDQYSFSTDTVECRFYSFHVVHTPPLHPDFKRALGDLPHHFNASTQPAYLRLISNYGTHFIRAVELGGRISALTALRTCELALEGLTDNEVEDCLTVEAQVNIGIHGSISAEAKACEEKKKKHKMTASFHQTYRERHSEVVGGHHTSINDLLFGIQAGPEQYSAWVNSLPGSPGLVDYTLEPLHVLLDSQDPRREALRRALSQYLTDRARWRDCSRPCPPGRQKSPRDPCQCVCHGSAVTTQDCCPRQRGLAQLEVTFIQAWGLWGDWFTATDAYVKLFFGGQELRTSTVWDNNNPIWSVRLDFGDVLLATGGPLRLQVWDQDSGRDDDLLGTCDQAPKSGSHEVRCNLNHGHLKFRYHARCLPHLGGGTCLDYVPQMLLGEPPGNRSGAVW
Description: The inhibitory function is then determined by identifying the number of untreated or inhibitor treated effector cells required to kill the same number of targets.

[2] = Toxicity to KHYG1 NK cells (Trypan blue exclusion); format: cell-based, human; settings: human, viability of KHYG1 NK cells after 24 h, n = 3
Description: (§1) The toxicity assay was carried out in exactly the same manner as the killing assay above, but instead of adding the labelled K562 target cells, 100 μL of RPMI 0.1% BSA was added. Cells were incubated for 4 h at 37 °C and then washed ×3 in RPMI + 0.1% BSA. […] Trypan blue was added to each well. Viable (clear) cells and total (clear + blue) cells were counted, and the percentage of viable cells was calculated compared to DMSO treated cell control (% viability).

[3] = Solubility of the sodium salt in water; format: physicochemical; settings: sodium salt in water at room temperature
Description: The compound was dissolved in water until it was no longer soluble in order to achieve a supersaturated concentration. The suspensions were sonicated for 15 min. prior to centrifugation at 13,000 revolutions per minute (rpm) for 6 minutes. Supernatants were removed and then recentrifuged prior to dilution of at least two fold in water to avoid precipitation during HPLC analysis.

[4] = Stability in solution (water, 20 °C, 24 h); format: physicochemical; settings: sodium salt, 24 h at 20 °C in water
Description: Test compounds were incubated (10 μM; < 2.5% DMSO in final concentration) in Milli Q water (n=3 tubes) at 20 °C for 24 h. (Eppendorf Thermomixer Comfort). Aliquots were collected (25 μL) just before the incubation (time “0 min”) and at 24 h. These samples were stored in a -80 °C freezer until the analysis by liquid chromatography with tandem mass spectrometry spectrometry (LC-MS/MS) – see next section for method development. Samples were thawed on wet ice on the day of assay. Thawed aliquots were mixed by vortex mixer, 10 μL of the sample transferred to a clean tube, 40 μL of ice cold acetonitrile added (containing internal standard compound), then centrifuged at 13,000 rpm for 5 min, 40 μL of clear supernatant transferred to an HPLC insert and mixed with 80 μL of 0.01% formic acid in water. Ten to 20 μL was injected onto the LC-MS/MS system. Results are based on the peak area ratio of drug to internal standard at time “0 h” (i.e. before the incubation and at the end i.e. “24 h”).

[5] = Microsome stability, mouse; format: in vitro ADME; settings: parent (as sodium salt) remaining after 30 min, mouse microsomes
Description: (§2) Microsome stability was carried out at Cyprotex using pooled human liver microsomes (male and female), pooled rat liver microsomes (male, Sprague Dawley rats), pooled mouse liver microsomes (male CD-1 mice) which were either prepared or purchased from a reputable commercial supplier. […] The final incubation volume was 25 μL. A control incubation was included for each compound tested where 0.1 M phosphate buffer pH 7.4 was added instead of NADPH (minus NADPH). Two control compounds were included with each species. All incubations were performed singularly for each test compound. Each compound was incubated for 0, 5, 15, 30 and 45 min. The control (minus NADPH) was incubated for 45 min only. The reactions were stopped by the addition of 50 μL methanol containing internal standard at the appropriate time points. The incubation plates were centrifuged at 2,500 rpm for 20 min at 4 °C to precipitate the protein. Following precipitation, the sample supernatants were combined in cassettes of up to 4 compounds and analysed using Cyprotex generic LC-MS/MS conditions. From a plot of ln peak area ratio (compound peak area/internal standard peak area) against time, the percentage compound remaining at 30 min was calculated. Results that were > 100% of matched control were defined as 100%.

Microsome stability, rat = format: in vitro ADME; settings: parent (as sodium salt) remaining after 30 min, rat microsomes
Description: as §2

[6] = Microsome stability, human; format: in vitro ADME; settings: parent (as sodium salt) remaining after 30 min, human microsomes
Description: as §2

[7] = In vivo plasma pharmacokinetics in mice; settings: mouse plasma, 10 mg/kg i.p. in 20% hydroxypropyl-β-cyclodextrin
Description: The in vivo PK parameters were measured for seven compounds selected on the basis of the in vitro assessment described above. Plasma pharmacokinetics were determined in male CD-1 mice for compounds 3, 10, 11, 26, 50, 58 and 59 (Table 6). Blood samples were collected at 5–8 time-points after dosing the compounds at 10 mg/kg in a solution of 20% hydroxypropyl-β-cyclodextrin by intraperitoneal (IP) injection. For analysis of the samples, chromatographic conditions were optimised by HPLC for each compound of interest and an internal standard. A liquid chromatography with tandem mass spectrometry (LC-MS/MS) method was then developed and validated for quantitation of each analyte.
PK studies were carried out in female C57BL/6J (female) mice using IP administration of test compound, dosing at 10 mg/kg in a solution of 20% hydroxypropyl-β-cyclodextrin. Mice (n=3 at each time point) were culled with excess inhalation of CO2 and blood collected by cardiac puncture at 5-8 time points after dosing in ice cold EDTA tubes. Plasma was separated by centrifuging at 6000 rpm for 5 min and stored at -80°C until analysis by LC-MS/MS. Frozen plasma was thawed on wet ice on the day of analysis. Ten μL of sample was transferred to a clean microcentrifuge tube and mixed with ice cold acetonitrile (40 μL containing internal standard) to precipitate the plasma proteins. The tubes were centrifuged at 13000 rpm for 5 min to obtain a clear supernatant which was mixed with 0.01% formic acid-water (1:2). Ten to twenty µL was injected into the LC-MS/MS to measure the analyte concentration in the sample. The samples were quantitated against a calibration curve of known analyte concentrations run in test species blank plasma (sourced from Innovative Research, USA). The concentration vs time data was then fitted into a pharmacokinetic software program (Phoenix WinNonlin v6.2) to calculate the PK parameters including T½, Cmax and AUC0-∞.

recombinant perforin = molecular target: T2, recombinant perforin (Mus musculus, UniProt P10820); assay: Inhibition of perforin-mediated lysis of Jurkat cells (51Cr release); format: cell-based; settings: recombinant perforin pre-incubated with compound 30 min; 51Cr-labelled Jurkat cells, 0.1% BSA, 4 h
T2 sequence (P10820 21-554): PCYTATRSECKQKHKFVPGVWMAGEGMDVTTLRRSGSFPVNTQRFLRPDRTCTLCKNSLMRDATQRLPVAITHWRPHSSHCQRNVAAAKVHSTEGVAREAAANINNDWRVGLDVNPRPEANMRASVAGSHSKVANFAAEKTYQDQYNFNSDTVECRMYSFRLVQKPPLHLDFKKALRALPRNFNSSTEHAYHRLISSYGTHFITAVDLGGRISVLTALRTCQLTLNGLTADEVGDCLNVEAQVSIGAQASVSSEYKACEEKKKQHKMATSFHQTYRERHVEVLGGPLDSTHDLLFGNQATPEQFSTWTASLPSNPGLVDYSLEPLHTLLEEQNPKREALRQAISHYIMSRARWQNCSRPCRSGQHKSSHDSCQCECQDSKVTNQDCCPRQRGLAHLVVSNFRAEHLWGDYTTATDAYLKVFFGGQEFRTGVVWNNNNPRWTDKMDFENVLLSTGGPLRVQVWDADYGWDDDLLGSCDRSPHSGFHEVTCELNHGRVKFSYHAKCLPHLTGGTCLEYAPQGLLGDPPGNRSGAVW
From the text: The supernatant was collected and assessed for its radioactive content on a gamma counter (Wallac Wizard 1470 automatic gamma counter).

KHYG1 NK cells = assay: Toxicity to KHYG1 NK cells (Trypan blue exclusion); format: cell-based, human; settings: viability of KHYG1 NK cells after 24 h, n = 3
Description: as §1

inhibition at 10 µM [1]	KHYG1 Inhibition (% at 10 μM) [1]	Solubility [3]	solubility at 15 min [3]	Stability in Solution (% parent remaining) [4]	Microsome Stability (%) Mouse [5]	Microsome Stability (%) Rat (Microsome stability, rat)	Microsome Stability (%) Human [6]	AUC0-∞ [7]	Cmax [7]	T1/2 [7]	Inhibition of Jurkat Cell Lysis IC50 (recombinant perforin)	melting point	SMILES	viability at 24 h, 10 µM [2]	KHYG1 Viability (% at 10 μM) (KHYG1 NK cells)
93%	92.5 ± 1.8%	negative impact on solubility	428 µg/mL	100%	96%	100%	94%	2885 µM·h	236 µM	6.6 h	–	–	CN1Cc2cc(-c3ccc(-c4cnc(F)c(NS(=O)(=O)c5ccc(F)cc5F)c4)s3)ccc2C1=O [Compound 10, 2,4-Difluoro-N-(2-fluoro-5-(5-(2-methyl-1-oxoisoindolin-5-yl)thiophen-2-yl)pyridin-3-yl)benzenesulphonamide]	92 ± 3%	–
95 ± 2.5%	–	–	4030 µg/mL	100%	97%	99%	95%	2364 µM·h	149 µM	9.5 h	–	–	CN1Cc2cc(-c3ccc(-c4cnc(Cl)c(NS(=O)(=O)c5ccc(F)cc5F)c4)s3)ccc2C1=O [Compound 11, 2,4-Difluoro-N-(2-chloro-5-(5-(2-methyl-1-oxoisoindolin-5-yl)thiophen-2-yl)pyridin-3-yl)benzenesulphonamide]	94 ± 5.3%	–
96%	95.6 ± 1.9%	–	671 µg/mL	100%	100%	89%	73%	415 µM·h	105 µM	2.5 h	–	–	CN1Cc2cc(-c3ccc(-c4cncc(NS(=O)(=O)c5ccccc5[N+](=O)[O-])c4)s3)ccc2C1=O [Compound 58, N-(5-(5-(2-Methyl-1-oxoisoindolin-5-yl)thiophen-2-yl)pyridin-3-yl)-2-nitrobenzenesulfonamide]	98.7 ± 1.5%	–
83.7 ± 3.2%	–	–	–	–	–	–	–	–	–	–	poor activity	282 to 285 °C	CN1Cc2cc(-c3ccc(-c4cncc(NS(=O)(=O)c5cccc(C#N)c5)c4)s3)ccc2C1=O [Compound 49, 3-Cyano-N-(5-(5-(2-methyl-1-oxoisoindolin-5-yl)thiophen-2-yl)pyridin-3-yl)benzenesulfonamide]	94.4 ± 7.1%	–
–	–	–	–	–	–	–	–	–	–	–	activity is abolished	269 to 272 °C	CN1Cc2cc(-c3ccc(-c4ccc(NS(=O)(=O)c5ccc(F)cc5F)nc4)s3)ccc2C1=O [Compound 4, 2,4-Difluoro-N-(5-(5-(2-methyl-1-oxoisoindolin-5-yl)thiophen-2-yl)pyridin-2-yl)benzenesulfonamide]	–	–
–	–	–	–	–	–	–	–	–	–	–	–	> 310 °C	CN1Cc2cc(-c3ccc(-c4cncc(NS(=O)(=O)c5ccc(C(=O)O)cc5)c4)s3)ccc2C1=O [Compound 55, 4-(N-(5-(5-(2-Methyl-1-oxoisoindolin-5-yl)thiophen-2-yl)pyridin-3-yl)sulfamoyl)benzoic acid]	–	toxic to the NK cells
–	–	–	–	–	–	–	–	–	–	–	complete loss of potency	267 to 269 °C	CN1Cc2cc(-c3ccc(-c4cncc(NC(=O)c5ccc(F)cc5F)c4)s3)ccc2C1=O [Compound 8, 2,4-Difluoro-N-(5-(5-(2-methyl-1-oxoisoindolin-5-yl)thiophen-2-yl)pyridin-3-yl)benzamide]	–	–
50%	50.3 ± 8.5%	–	–	–	–	–	–	–	–	–	complete loss of potency	268 to 271 °C	Cc1ccc(NS(=O)(=O)c2ccc(F)cc2F)cc1-c1ccc(-c2ccc3c(c2)CN(C)C3=O)s1 [Compound 13, 2,4-Difluoro-N-(4-methyl-3-(5-(2-methyl-1-oxoisoindolin-5-yl)thiophen-2-yl)phenyl)benzenesulfonamide]	91.7 ± 10%	–
